# From paper PMC12042115 (mLife, 2025)
# Read-outs that look alike come from different tables or passages of the source.
# Tested on: wild‐type BCG cells
# Format: cell-based, M. bovis BCG
# Conditions: for Mean Ratio: GDI5755_2d vs DMSO_2d; for Mean Ratio / Mean Ratio (GDI5755_2d vs DMSO_2d): up-regulated; for Mean_Ratio (GDI5755_3d vs DMSO_3d): down-regulated, 3 d; for Mean Ratio (GDI5755_2d vs DMSO_2d): 2d
structure (smiles),measurement,setting,value
O=C(Oc1ccc(Cl)cc1)c1ccc(N2CCOCC2)c([N+](=O)[O-])c1 [GDI‐5755],Mean Ratio,protein A1KKK9 Transcriptional regulator MraZ,1.25
same,Mean_Ratio (GDI5755_3d vs DMSO_3d),"protein A1KKR8, BCG_2242 (Rv2225), 3-methyl-2-oxobutanoate hydroxymethyltransferase",0.748
same,Mean_Ratio (GDI5755_3d vs DMSO_3d),"protein A1KLF3, BCG_2477c (Rv2457c), ATP-dependent Clp protease ATP-binding subunit ClpX",0.743
same,Mean_Ratio (GDI5755_3d vs DMSO_3d),"protein A1KLT2, BCG_2607c (Rv2584c), Adenine phosphoribosyltransferase",0.7
same,Mean_Ratio (GDI5755_3d vs DMSO_3d),"protein A1KMA6, BCG_2781c (Rv2764c), Thymidylate synthase",0.7
same,Mean Ratio (GDI5755_2d vs DMSO_2d),protein A1KNI8 UPF0182 protein BCG_3215c,1.34
same,Mean Ratio,protein A1KNQ0 Adenosylhomocysteinase,1.26
same,Mean_Ratio (GDI5755_3d vs DMSO_3d),"protein A1KQ47, BCG_3775c (Rv3715c), Recombination protein RecR",0.7
same,Mean Ratio (GDI5755_2d vs DMSO_2d),protein BCG_0095 A1KEN2 UPF0182 protein,1.41
same,Mean Ratio (GDI5755_2d vs DMSO_2d),protein BCG_0108c A0A0H3M9Q4 Probable oxidoreductase,1.77
same,Mean Ratio (GDI5755_2d vs DMSO_2d),protein BCG_0130 A0A0H3M0N8 Possible oxidoreductase,1.72
same,Mean Ratio (GDI5755_2d vs DMSO_2d),protein BCG_0132 A0A0H3M2I5 Possible fatty-acid-CoA ligase fadD10,1.49
same,Mean Ratio (GDI5755_2d vs DMSO_2d),protein BCG_0178 A0A0H3M7D0 DNA glycosylase,1.58
same,Mean Ratio (GDI5755_2d vs DMSO_2d),protein BCG_0181 A1KEW5 Putative S-adenosyl-L-methionine-dependent methyltransferase,2.17
same,Mean Ratio (GDI5755_2d vs DMSO_2d),protein BCG_0182 A1KEW6 Putative S-adenosyl-L-methionine-dependent methyltransferase,2.71
same,Mean Ratio (GDI5755_2d vs DMSO_2d),protein BCG_0228 A0A0H3MA02 Probable conserved integral membrane protein,1.46
same,Mean Ratio (GDI5755_2d vs DMSO_2d),"protein BCG_0248 A1KF31 Phosphoenolpyruvate carboxykinase [GTP],pckG",1.87
same,Mean Ratio (GDI5755_2d vs DMSO_2d),protein BCG_0282c A0A0H3M7K8 Probable acyl-CoA dehydrogenase fadE5,1.45
same,Mean Ratio (GDI5755_2d vs DMSO_2d),"protein BCG_0289c A0A0H3MA45 HSP20 family protein/ Heat stress induced ribosome-binding protein A,acr2",3.46
same,Mean Ratio (GDI5755_2d vs DMSO_2d),protein BCG_0353 A0A0H3M1Y1 Transmembrane protein,1.84
same,Mean Ratio (GDI5755_2d vs DMSO_2d),protein BCG_0380 A0A0H3MAC3 Isoniazid inductible gene protein iniB,1.73
same,Mean Ratio (GDI5755_2d vs DMSO_2d),protein BCG_0389 A1KFH2 Chaperone protein DnaK,1.52
same,Mean Ratio (GDI5755_2d vs DMSO_2d),protein BCG_0390 A1KFH3 Protein GrpE,1.53
same,Mean Ratio (GDI5755_2d vs DMSO_2d),protein BCG_0391 A0A0H3M380 Chaperone protein DnaJ,1.51
same,Mean Ratio (GDI5755_2d vs DMSO_2d),protein BCG_0422c A0A0H3M7W9 Chaperone protein ClpB,1.56
same,Mean Ratio (GDI5755_2d vs DMSO_2d),protein BCG_0465c A0A0H3M812 Possible transmembrane protein,1.45
same,Mean Ratio (GDI5755_2d vs DMSO_2d),protein BCG_0490c A0A0H3M1K6 Probable conserved membrane protein mmpS4,1.45
same,Mean Ratio (GDI5755_2d vs DMSO_2d),protein BCG_0494c A0A0H3M296 DUF5078 domain-containing protein,1.52
same,Mean Ratio (GDI5755_2d vs DMSO_2d),protein BCG_0507 A0A0H3M3L9 isocitrate lyase,1.56
same,Mean Ratio (GDI5755_2d vs DMSO_2d),protein BCG_0517 A0A0H3M881 Possible conserved transmembrane protein,1.43
same,Mean Ratio (GDI5755_2d vs DMSO_2d),protein BCG_0565 A0A0H3M3T9 Probable gaba permease gabP (4-amino butyrate transport carrier),1.46
same,Mean Ratio (GDI5755_2d vs DMSO_2d),"protein BCG_0578c A0A0H3M3U8 1,4-dihydroxy-2-naphthoate octaprenyltransferase",1.66
same,Mean Ratio (GDI5755_2d vs DMSO_2d),protein BCG_0605c A1KG37 2-heptyl-1-hydroxyquinolin-4(1H)-one methyltransferase,2.76
same,Mean Ratio (GDI5755_2d vs DMSO_2d),protein BCG_0614 A0A0H3M8E5 DUF1918 domain-containing protein,1.43
same,Mean Ratio (GDI5755_2d vs DMSO_2d),protein BCG_0623c A0A0H3M1W6 PE-PGRS family protein,1.87
same,Mean Ratio (GDI5755_2d vs DMSO_2d),protein BCG_0725c A0A0H3MAX0 Probable conserved transmembrane transport protein mmpL5,1.69
same,Mean Ratio (GDI5755_2d vs DMSO_2d),protein BCG_0727 A0A0H3M257 Transcriptional regulator,1.43
same,Mean Ratio (GDI5755_2d vs DMSO_2d),protein BCG_0761 A0A0H3M268 Possible arylsulfatase atsA,1.61
same,Mean Ratio (GDI5755_2d vs DMSO_2d),protein BCG_0776c A1KGK7 Putative S-adenosyl-L-methionine-dependent methyltransferase BCG_0776c,1.55
same,Mean Ratio (GDI5755_2d vs DMSO_2d),protein BCG_0835 A0A0H3M322 Deacetylase,1.55
same,Mean Ratio (GDI5755_2d vs DMSO_2d),protein BCG_0883 A1KGW3 Putative S-adenosyl-L-methionine-dependent methyltransferase BCG_0883,1.87
same,Mean Ratio (GDI5755_2d vs DMSO_2d),protein BCG_0969 A0A0H3M4Q4 Possible glycine betaine transport integral membrane protein betP,1.64
same,Mean Ratio (GDI5755_2d vs DMSO_2d),protein BCG_1053 A0A0H3M3P8 Uncharacterized protein,1.56
same,Mean Ratio (GDI5755_2d vs DMSO_2d),protein BCG_1115 A0A0H3M9F1 Uncharacterized protein,1.90
same,Mean Ratio (GDI5755_2d vs DMSO_2d),protein BCG_1130 A0A0H3M9G5 Probable conserved transmembrane protein,1.64
same,Mean Ratio (GDI5755_2d vs DMSO_2d),protein BCG_1191 A0A0H3M5B0 2-methylcitrate dehydratase,1.57
same,Mean Ratio (GDI5755_2d vs DMSO_2d),protein BCG_1249 A0A0H3M3D0 L-glutamate gamma-semialdehyde dehydrogenase,1.49
same,Mean Ratio (GDI5755_2d vs DMSO_2d),protein BCG_1281 A0A0H3M3F3 Alternative RNA polymerase sigma factor sigE,1.41
same,Mean Ratio (GDI5755_2d vs DMSO_2d),protein BCG_1309c A0A0H3M3H0 Possible membrane protein,1.44
same,Mean Ratio (GDI5755_2d vs DMSO_2d),protein BCG_1334 A0A0H3M3I9 Lipoprotein lprC,1.55
same,Mean Ratio (GDI5755_2d vs DMSO_2d),protein BCG_1404c A0A0H3M3N1 Conserved membrane protein,1.78
same,Mean Ratio (GDI5755_2d vs DMSO_2d),protein BCG_1574c A0A0H3M689 Probable conserved transmembrane transport protein mmpL12,1.47
same,Mean Ratio (GDI5755_2d vs DMSO_2d),protein BCG_1609 A0A0H3M480 Probable conserved transmembrane transport protein mmpL6,1.85
same,Mean Ratio (GDI5755_2d vs DMSO_2d),protein BCG_1660c A0A0H3M5A2 Probable integral membrane cytochrome D ubiquinol oxidase (Subunit II) cydB,1.42
same,Mean Ratio (GDI5755_2d vs DMSO_2d),protein BCG_1661c A0A0H3M4E4 Probable integral membrane cytochrome D ubiquinol oxidase (Subunit I) cydA,1.57
same,Mean Ratio (GDI5755_2d vs DMSO_2d),protein BCG_1890c A0A0H3MB87 Type II NADH dehydrogenase Ndh/Rv1854c,1.53
same,Mean Ratio (GDI5755_2d vs DMSO_2d),protein BCG_2010c A0A0H3M561 DUF1490 family protein,1.88
same,Mean Ratio (GDI5755_2d vs DMSO_2d),protein BCG_2056c A0A0H3MBM9 Possible conserved transmembrane protein,1.52
same,Mean Ratio (GDI5755_2d vs DMSO_2d),protein BCG_2072c A0A0H3M7M3 Probable transmembrane protein,2.05
same,Mean Ratio (GDI5755_2d vs DMSO_2d),protein BCG_2419c A0A0H3M8K8 Probable conserved lipoprotein lppR,1.48
same,Mean Ratio (GDI5755_2d vs DMSO_2d),protein BCG_2583 A0A0H3M7F6 Probable proline and glycine rich transmembrane protein,1.73
same,Mean Ratio (GDI5755_2d vs DMSO_2d),protein BCG_2657 A0A0H3M963 Archease domain-containing protein,1.52
same,Mean Ratio (GDI5755_2d vs DMSO_2d),protein BCG_2934c A0A0H3M896 Possible D-amino acid aminohydrolase,1.77
same,Mean Ratio (GDI5755_2d vs DMSO_2d),protein BCG_2965 A0A0H3MDP7 Probable transposase for insertion sequence element IS1533,2.65
same,Mean Ratio (GDI5755_2d vs DMSO_2d),protein BCG_3007c A0A0H3M7X4 DNA-binding protein HupB,1.45
same,Mean Ratio (GDI5755_2d vs DMSO_2d),protein BCG_3038 A0A0H3MA42 Probable lipoprotein lpqA,1.97
